This assay concerns Seeds of Lettuce R. (Super-Jericho). Nature of the assay: Filter paper bioassay with lettuce seeds: germination and early plant development, Minimal Effective Concentration (MEC). Format: in vivo. The following applies: lettuce seeds on filter paper, 0 to 1 mmol/l, visually assessed after 6 days. The source says:
Materials: Seeds of Lettuce R. (Super-Jericho, non-sterilized) were obtained from Ben Shahar Moshe Ltd., 99% purity. The test compounds listed in the Table 2 below were synthetized de novo or purchased from different vendors.
Filter Paper Bioassays with Lettuce seeds: The protocol is following Bertin et al. 2009 and Movellan et al. 2014 with specified modifications as described below.
Seeds were placed on Whatman no. 1 filter paper (Whatman, Middlesex, U.K.) in Petri dishes (10 seeds per plate) with 2.0 ml of aqueous solution of a test material in concentration ranged from 0 (control) to 1 mmol/l were placed in a tray tilted at 45[…]. The trays were kept in dark for 48 hours and then transferred to the growth chamber with 6/18 dark/light cycle for 4 days. Each experiment was performed at least with two repeats.
The development of plants' radicle and shoots were visually assessed 6 days after the beginning of the test to determine Minimal Effective Concentration (MEC) of a test material. In the context of the invention, MEC is defined as the lowest concentration level of a test material that caused deviation (absence of germination or malformation of radicle or shoots) from the plant's development in the Control group.

“2-bromo-6-phenoxypyridine [compound 6645]”: the “Score (activity score of Minimal Effective Concentration, MEC)” value (from here on “Score”) is recorded as “Strong (0.01 mM)”.
For the molecule “2-bromo-N-[(2,5-dichlorothiophen-3-yl)methyl]pyridine-4-carboxamide [compound 5614]”, the “Score” value is reported as “Moderate (0.1 mM)”.
In the case of “2-bromopyridine-4-carboxamide [compound 6600]”, the “Score” value is recorded as “Weak (Higher than 0.1 mM)”.
Under “2-bromopyridine-4-carboxylic acid [compound 692]” stands “Weak (Higher than 0.1 mM)”; under “2-carbamimidamido-N-[2-(2,5-dichlorothiophen-3-yl)ethyl]acetamide [compound 5726]”, “Moderate (0.1 mM)”.
To “2-{2-[3-fluoro-5-(trifluoromethyl)pyridin-2-yl]-1,3-thiazol-4-yl}acetic acid [compound 5770]” belongs “Weak (Higher than 0.1 mM)”.
Turning to “2-{[(2,5-dichlorothiophen-3-yl)methyl]amino}acetic acid [compound 5615]”, the “Score” value is listed as “Weak (Higher than 0.1 mM)”.
On to “3-(1H-1,2,4-triazol-1-yl)propanoic acid [compound 5628]”, for which the “Score” value is listed as “Weak (Higher than 0.1 mM)”.
To “3-(thiophen-3-yl)propan-1-amine [compound 593]” belongs “weak”; to “3-(thiophen-3-yl)propane-1,2-diol [compound 5604]”, “Moderate (0.1 mM)”.
Under “3-{[(2,5-dichlorothiophen-3-yl)methyl]amino}-2,2-difluoropropanoic acid [compound 5624]” stands “Weak (Higher than 0.1 mM)”; under “4-(2,5-dichlorothiophen-3-yl)butanoic acid [compound 597]”, “Moderate (0.1 mM)”; under “6-bromopyridine-2-carbonitrile [compound 6670]”, “Weak (Higher than 0.1 mM)”.
For `O=C(O)C(O)Cc1cc(Cl)sc1Cl` (centres unmarked) [compound 585, 3-(2,5-dichlorothiophen-3-yl)-2-hydroxypropanoic acid], the “Score” value was “moderate”.
As for `NCc1cc(Cl)sc1Cl` [compound 587, 1-(2,5-dichlorothiophen-3-yl)methanamine], the “Score” value was “weak”.
To `NCCc1ccsc1` [compound 588, 2-(thiophen-3-yl)ethan-1-amine] belongs “weak”.
Under `OCCc1ccsc1` [compound 589, 2-(thiophen-3-yl)ethan-1-ol] stands “strong”.
Turning to `NCC(O)c1ccsc1` (centres unmarked) [compound 590, 2-amino-1-(thiophen-3-yl)ethan-1-ol], the “Score” value is “weak”.
To `NC(=O)Cc1ccsc1` [compound 591, 2-(thiophen-3-yl)acetamide] belongs “moderate”; to `O=C(O)c1nc(Cl)sc1Cl` [compound 596, 2,5-dichloro-1,3-thiazole-4-carboxylic acid], “Weak (Higher than 0.1 mM)”; to `CCOC(=O)C(NC(C)=O)C(F)(F)c1nnc(CCl)s1` (centres unmarked) [compound 598, ethyl3-[5-(chloromethyl)-1,3,4-thiadiazol-2-yl]-2-acetamido-3,3-difluoropropanoate], “Weak (Higher than 0.1 mM)”.
For the molecule `Cl.NC(Cc1n[nH]c2ccccc12)C(=O)O` (centres unmarked) [compound 599, 2-amino-3-(1H-indazol-3-yl)propanoic acid hydrochloride[HCl]], the “Score” value was “Moderate (0.1 mM)”.
To `O=C(O)C(O)Cc1ccnc(Br)c1` (centres unmarked) [compound 680, 3-(2-bromopyridin-4-yl)-2-hydroxypropanoic acid] belongs “Weak (Higher than 0.1 mM)”.
Regarding `Brc1cc(CNCc2ccnc(Br)c2)ccn1` [compound 686, bis[(2-bromopyridin-4-yl)methyl]amine], the “Score” value was “Weak (Higher than 0.1 mM)”.
Regarding `BrCCc1ccnc(Br)c1` [compound 690, 2-bromo-4-(2-bromoethyl)pyridine], the “Score” value is reported as “Weak (Higher than 0.1 mM)”.
As to `O=C(O)/C=C/c1ccc(Cl)nc1Cl` [compound 694, (2E)-3-(2,6-dichloropyridin-3-yl)prop-2-enoic acid], the “Score” value is “Moderate (0.1 mM)”.
Consider `NCCSCCc1ccsc1` [compound 5603, 2-{[2-(thiophen-3-yl)ethyl]sulfanyl}ethan-1-amine], for which the “Score” value was “Weak (Higher than 0.1 mM)”.
For the molecule `O=C(NCC(F)(F)C(=O)O)c1cc(Cl)sc1Cl` [compound 5605, 3-[(2,5-dichlorothiophen-3-yl)formamido]-2,2-difluoropropanoic acid], the “Score” value was “Weak (Higher than 0.1 mM)”.
To `O=C(O)CCc1cc(Cl)sc1Cl` [compound 5606, 3-(2,5-dichlorothiophen-3-yl)propanoic acid] belongs “Moderate (0.1 mM)”; to `O=C(O)/C=C/c1cncs1` [compound 5608, (2E)-3-(1,3-thiazol-5-yl)prop-2-enoic acid], “Weak (Higher than 0.1 mM)”.
Under `O=C(Cl)c1nc(Cl)sc1Cl` [compound 5613, 2,5-dichloro-1,3-thiazole-4-carbonylchloride] stands “Weak (Higher than 0.1 mM)”.
Under `CC(=O)Nc1nc(Cl)sc1Cl` [compound 5618, N-(2,5-dichloro-1,3-thiazol-4-yl)acetamide] stands “Moderate (0.1 mM)”.
Regarding `O=C(O)C(=O)/C=C/c1cc(Cl)sc1Cl` [compound 5620, (3E)-4-(2,5-dichlorothiophen-3-yl)-2-oxobut-3-enoic acid], the “Score” value is reported as “Weak (Higher than 0.1 mM)”.
To `O=C(O)CCN1CCN(Cc2cc(Cl)sc2Cl)CC1` [compound 5626, 3-{4-[(2,5-dichlorothiophen-3-yl)methyl]piperazin-1-yl}propanoic acid] belongs “Weak (Higher than 0.1 mM)”; to `O=C(O)CCC(F)(F)c1cc(Cl)sc1Cl` [compound 5632, 4-(2,5-dichlorothiophen-3-yl)-4,4-difluorobutanoic acid], “Moderate (0.1 mM)”; to `O=C(O)C(=O)c1c(Cl)sc(Cl)c1Cl` [compound 5645, 2-oxo-2-(245-trichlorothiophen-3-yl)acetic acid], “Strong (0.01 mM)”.
As to `O=C(O)C(F)(F)c1ccc2[nH]c(=O)[nH]c2c1` [compound 5654, 2,2-difluoro-2-(2-oxo-23-dihydro-1H-1,3-benzodiazol-5-yl)acetic acid], the “Score” value is recorded as “Weak (Higher than 0.1 mM)”.
`CCOC(=O)C(Br)c1nc(Br)sc1C` (centres unmarked) [compound 5662, ethyl 2-bromo-2-(2-bromo-5-methyl-1,3-thiazol-4-yl)acetate]: the “Score” value is “Moderate (0.1 mM)”.
Under `Cl.Nc1nc2c(s1)CCCC2C(=O)O` (centres unmarked) [compound 5673, 2-amino-4567-tetrahydro-1,3-benzothiazole-4-carboxylic acid hydrochloride] stands “<moderate”.
Under `C[N+](C)(C)CCc1nc(Cl)sc1Cl` [compound 5680, 2-(2,5-dichloro-1,3-thiazol-4-yl)-NNN-trimethylethan-1-aminium] stands “Weak (Higher than 0.1 mM)”; under `O=C(O)c1cnc2sc(Cl)nc2c1` [compound 5683, 2-chloro[1,3]thiazolo[54-b]pyridine-6-carboxylic acid], “Moderate (0.1 mM)”; under `Clc1cc(CCNCc2ccccc2)c(Cl)s1` [compound 5694, benzyl[2-(2,5-dichlorothiophen-3-yl)ethyl]amine], “Moderate (0.1 mM)”.
For `Nc1nc(C(F)(F)c2ccccc2)cs1` [compound 5697, 4-[difluoro(phenyl)methyl]-1,3-thiazol-2-amine], the “Score” value is given as “Strong (0.01 mM)”.
On to `NNC(=O)Cc1csc(Cl)n1` [compound 5704, 2-(2-chloro-1,3-thiazol-4-yl)acetohydrazide], for which the “Score” value was “Moderate (0.1 mM)”.
For `O=C(Cc1ccccc1)NCCc1cc(Cl)sc1Cl` [compound 5708, N-[2-(2,5-dichlorothiophen-3-yl)ethyl]-2-phenylacetamide], the “Score” value is reported as “Moderate (0.1 mM)”.
As to `CNNC(=O)Cc1csc(Cl)n1` [compound 5715, 2-(2-chloro-1,3-thiazol-4-yl)-N′-methyl acetohydrazide], the “Score” value was “Moderate (0.1 mM)”.
Under `O=C(O)Cc1csc(-c2ncc(Cl)cc2F)n1` [compound 5716, 2-[2-(5-chloro-3-fluoropyridin-2-yl)-1,3-thiazol-4-yl]acetic acid] stands “Moderate (0.1 mM)”.
